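Growth conditions: 96-well plates. Treatment: test compound, 48 hours, 5 concentrations. Analysis: linear interpolation between bracketing concentrations; unreached endpoints set to highest concentration. GI50: concentration for 50% inhibition of growth. TGI: concentration producing complete growth inhibition.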
Assays:
Assay in all cases: NCI-60 cell line screen, 48 h
[1] = system: A549 NSCLC
[2] = system: SNB-75 CNS
[3] = system: EKVX NSCLC
[4] = system: KM12 colon
[5] = system: NCI-H460 lung
[6] = system: SF-268 CNS
[7] = system: NCI-H226 lung
[8] = system: MDA-MB-435
[9] = system: MDA-MB-231 breast

| Compound | TGI [1] [µM] | TGI [2] [µM] | TGI [3] [µM] | TGI [4] [µM] | TGI [5] [µM] | TGI [6] [µM] | TGI [7] [µM] | GI50 [1] [µM] | GI50 [8] [µM] | TGI [8] [µM] | GI50 [2] [µM] | GI50 [9] [µM] | TGI [9] [µM] | GI50 [3] [µM] | GI50 [4] [µM] | GI50 [5] [µM] | GI50 [7] [µM] | GI50 [6] [µM] |
| --- | --- | --- | --- | --- | --- | --- | --- | --- | --- | --- | --- | --- | --- | --- | --- | --- | --- | --- |
| O=C(CNc1nncs1)NO | > 100 | > 100 | > 100 | > 100 | > 100 | > 100 | – | – | – | – | – | – | – | – | – | – | – | – |
| COc1cccc2cc(C)c(C(=O)c3ccccc3)nc12 | > 100 | > 100 | > 100 | > 100 | – | > 100 | > 100 | – | – | – | – | – | – | – | – | – | – | – |
| COc1nc(N(C)O)nc(N(C)O)n1 | > 100 | > 100 | > 100 | > 100 | 8.62 | > 100 | 55.4 | 1.39 | 3.76 | > 100 | 10 | 3.54 | > 100 | 1.56 | 2.99 | 0.454 | 2.48 | 1.16 |
| CC1=C(C)C(=O)c2c(cc3ccc4ccccc4n23)C1=O | > 100 | > 100 | > 100 | > 100 | > 100 | > 100 | > 100 | – | – | – | – | – | – | – | – | – | – | – |
| COc1ccc2cc(C(=O)/C=C/c3cc(OC)c(OC)c(OC)c3)ccc2c1 | 44.5 | 39.3 | 29.5 | 35.7 | 5.73 | 13.7 | – | 2.56 | 2.67 | 40.5 | 11.8 | 1.02 | 15.8 | 4.05 | 2.3 | 1.27 | – | 5.11 |
| Cn1c(=O)nc2n(-c3ccc(Cl)cc3)c3ccc(Cl)cc3nc-2c1=O | > 100 | 10.4 | 28.7 | 32 | 33.7 | 19.7 | 27.9 | – | – | – | – | – | – | – | – | – | – | – |
| Nn1c(-c2ccccc2)nc2ccc(Br)cc2c1=O | > 100 | > 100 | > 100 | > 100 | > 100 | > 100 | > 100 | – | – | – | – | – | – | – | – | – | – | – |
| Cc1cc2c(c(C#N)c1C)NC(=O)CCC2=O | > 100 | > 100 | > 100 | > 100 | > 100 | – | – | – | – | – | – | – | – | – | – | – | – | – |
| O=C1CC(O)C=C1Nc1ccc(Cl)cc1 (centres undefined) | 35.5 | > 100 | 60.8 | 39.2 | > 100 | > 100 | > 100 | – | – | – | – | – | – | – | – | – | – | – |
| Cc1nc2c(nc1C)C(=O)c1cc(O)ccc1C2=O | > 100 | > 100 | > 100 | > 100 | > 100 | > 100 | > 100 | – | – | – | – | – | – | – | – | – | – | – |
| CCOc1ccccc1NC(=O)C(=O)CC(=O)c1c(C)n([O-])c2ccccc2[n+]1=O | > 100 | > 100 | > 100 | > 100 | > 100 | > 100 | > 100 | – | – | – | – | – | – | – | – | – | – | – |
| COc1ccc2[nH]c3c(c2c1)CCN(C)CC3 | > 100 | > 100 | > 100 | > 100 | > 100 | > 100 | – | – | – | – | – | – | – | – | – | – | – | – |
| COC(=O)C1CC2(CC3=C1CCCC3)OCCO2 (centres undefined) | > 100 | > 100 | > 100 | > 100 | > 100 | > 100 | – | – | – | – | – | – | – | – | – | – | – | – |
| N#CCC(=O)Nc1cccc(C(F)(F)F)c1 | > 100 | > 100 | > 100 | > 100 | > 100 | > 100 | > 100 | – | – | – | – | – | – | – | – | – | – | – |
| CC(=O)O/C=C(/C=C/OC(C)=O)C(C/C=C(\C)C#CC=C(C)C)OC(C)=O (centres undefined) | > 100 | – | > 100 | 61.5 | > 100 | > 100 | > 100 | – | – | – | – | – | – | – | – | – | – | – |
| CC(=O)C1CC(C)=CCC12C(=O)Nc1ccccc12 (centres undefined) | > 100 | > 100 | > 100 | > 100 | > 100 | > 100 | > 100 | – | – | – | – | – | – | – | – | – | – | – |
| CC1=C(C(=O)Nc2c(C)cccc2C)C(c2ccc3c(c2)OCO3)C(C(=O)Nc2c(C)cccc2C)=C(C)N1 | 59 | 63.1 | 53.3 | 29.1 | 39.9 | 48.5 | 32.3 | – | – | – | – | – | – | – | – | – | – | – |
| CNC(P(=O)([O-])[O-])P(=O)([O-])[O-].N.N.[Pt+2] | > 100 | > 100 | > 100 | – | > 100 | > 100 | > 100 | > 100 | – | – | > 100 | – | – | > 100 | – | 51.2 | > 100 | > 100 |

Source: PubChem BioAssay (NCI)
